Type in all cases: cell-based
For assay [1], the target named is T1, rat mGlu5 (HEK293A-rat mGlu5-low) (Rattus norvegicus, UniProt P31424). The experiment in a line: [3H]methoxy-PEPy inhibition binding, intact adherent cells.
For assay [2], the target named is T1, rat mGlu5 (HEK293A-rat mGlu5-low). The experiment in a line: IP1 accumulation.
Assay [3] shares this target. Put plainly: radioligand binding, intact adherent cells. The conditions noted are these: labelled compound, ~2 nM, RT, 1 h, pH 7.4; allosteric site.

T1 sequence (P31424 21-1203): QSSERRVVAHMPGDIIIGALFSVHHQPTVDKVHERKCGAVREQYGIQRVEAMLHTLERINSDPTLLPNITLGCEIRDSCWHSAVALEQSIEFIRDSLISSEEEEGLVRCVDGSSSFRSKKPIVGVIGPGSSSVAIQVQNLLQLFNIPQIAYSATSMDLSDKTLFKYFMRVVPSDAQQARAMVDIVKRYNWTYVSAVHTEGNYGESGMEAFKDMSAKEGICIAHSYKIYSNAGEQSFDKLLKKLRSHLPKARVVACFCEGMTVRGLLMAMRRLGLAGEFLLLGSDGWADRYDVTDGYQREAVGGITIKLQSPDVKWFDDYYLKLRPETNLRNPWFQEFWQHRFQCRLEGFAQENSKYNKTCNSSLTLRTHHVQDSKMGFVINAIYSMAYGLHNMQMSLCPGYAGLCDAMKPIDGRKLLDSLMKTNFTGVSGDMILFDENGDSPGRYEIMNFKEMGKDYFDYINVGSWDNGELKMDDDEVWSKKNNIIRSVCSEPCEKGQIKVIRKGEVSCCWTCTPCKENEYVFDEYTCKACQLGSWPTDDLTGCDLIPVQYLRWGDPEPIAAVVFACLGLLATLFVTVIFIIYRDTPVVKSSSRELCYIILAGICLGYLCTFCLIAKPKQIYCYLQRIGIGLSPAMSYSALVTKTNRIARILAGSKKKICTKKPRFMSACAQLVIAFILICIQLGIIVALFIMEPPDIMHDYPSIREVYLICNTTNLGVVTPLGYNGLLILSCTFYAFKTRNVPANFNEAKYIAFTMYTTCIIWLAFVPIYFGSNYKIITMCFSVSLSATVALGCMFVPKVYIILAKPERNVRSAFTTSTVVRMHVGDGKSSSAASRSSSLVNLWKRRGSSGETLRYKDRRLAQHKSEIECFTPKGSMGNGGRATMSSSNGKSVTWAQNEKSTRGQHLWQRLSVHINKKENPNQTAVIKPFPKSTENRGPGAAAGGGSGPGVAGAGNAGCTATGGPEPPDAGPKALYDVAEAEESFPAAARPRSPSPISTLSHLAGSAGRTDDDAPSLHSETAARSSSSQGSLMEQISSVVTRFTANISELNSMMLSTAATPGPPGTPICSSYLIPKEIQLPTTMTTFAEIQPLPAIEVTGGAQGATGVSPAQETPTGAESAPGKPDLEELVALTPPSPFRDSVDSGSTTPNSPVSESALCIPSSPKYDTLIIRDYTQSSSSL

`COc1cccc(C#Cc2ccc(C)cn2)c1` [M-5MPEP, 2-[2-(3-methoxyphenyl)ethynyl]-5-methylpyridine] gave a Ki in assay [1] of 74.1 nM. This compound also gave an IC50 in assay [2] of 295 nM.

Take `N#Cc1cnc(Nc2nc3ccccc3o2)nc1-c1ccc(F)cc1` [VU0366058, 2-(1,3-benzoxazol-2-ylamino)-4-(4-fluorophenyl)pyrimidine-5-carbonitrile]: in assay [1], the Ki is 55 nM. Further, the IC50 in assay [2] is 105 nM.

In assay [1], `N#Cc1cc(F)cc(C(=O)Nc2cccc(Cl)c2F)c1` [VU0366248, N-(3-chloro-2-fluorophenyl)-3-cyano-5-fluorobenzamide] had a Ki of 115 nM. Besides, the IC50 in assay [2] was 331 nM.

For `COc1cncc(C#Cc2ccccn2)c1` [[^3H]methoxy-PEPy], the “radioligand binding, intact adherent cells” value in assay [3] is “inhibition of [^3H]methoxy-PEPy binding was determined in HEK293A-rat mGlu5-low cells”.

`Fc1ccc2nc(CCC#Cc3ccccn3)cn2c1` [dipraglurant, 6-fluoro-2-[4-(2-pyridinyl)-3-butyn-1-yl]-Imidazo[1,2-a]pyridine]: affinity in assay [1] was put at a Ki of 49 nM. Inhibition in assay [2] was half-maximal at 43.7 nM (IC50).

Consider `CN1CC(=O)N=C1NC(=O)Nc1cccc(Cl)c1` [fenobam, 1-(3-chlorophenyl)-3-[(2e)-1-methyl-4-oxoimidazolidin-2-ylidene]urea], for which the affinity in assay [1], expressed as Ki, was 70.8 nM. Further, in assay [2], the IC50 is 148 nM.

The record behind these values is paper PMC6420870 (Neuropharmacology, 2019).
